Reference: publication PMC10606834, “Is the Neuropeptide PEN a Ligand of GPR83?” (International Journal of Molecular Sciences, 2023)
Entries after “also recorded” stand apart in the source; their conditions may differ.

Columns and labels:
GPR83 (HTLA cells) = assay: TANGO β-arrestin assay, GPR83; assay type: cell-based, human; conditions: ligand library containing PEN (library plates 10 µM); HTLA cells expressing GPR83; PRESTO-Tango, RLU
Protocol: The TANGO assay reports GPCR-related activation of β-arrestin using a luminescent readout.
For the determination of β-arrestin recruitment after GPCR activation, the PRESTO-Tango system was utilized. On day one, HTLA cells (HEK293 cell line stably expressing a tTA-dependent luciferase reporter and a β-arrestin2-TEV fusion gene, maintained in RPMI supplemented with 10% FBS, 2 μg/mL puromycin, and 100 μg/mL hygromycin) were seeded into 150 mm cell culture plates at 1 × 10^7 cells per well in 30 mL of medium. The next day, transfections were performed directly in the 150 mm plates using jetPEI (Polyplus, Illkirch, France). Plasmid DNA of interest was prepared for transfection following the jetPEI protocol and with a DNA/jetPEI ratio of 1:1. A GFP-encoding plasmid was added as a transfection control (GFP plasmid added as 10% of total DNA to the total NaCl used for plasmid DNA dilution). On day 3, transfected cells were transferred at 15,000 cells per well in 30 μL of medium into 384-well black well, clear bottom plates. On day 4, ligand library multiwall plates (10 µM) were thawed, and 23 μL was added to each well. On day 5, 50 μL per well of BrightGlo luminescence reagent (diluted 10-fold with HBSS buffer) was carefully added, and plates were incubated for 10 min before luminescence reading in the EnVision 2103 Multilabel Reader (Perkin Elmer).

[1] = tested on: GPR83 and GPR83del, with or without HA tag (HEK293 cells; wild-type HEK293 as comparison); assay: Competitive radioligand binding assay, GPR83; design: species or system human
Description: One of the most proven methods for quantitatively analyzing the interaction of biomolecules is the competitive radioligand binding assay. […] To safeguard against possible interference of the added Tyr with ligand–receptor binding, two peptides were created and are as follows: one with the Tyr on the aminoterminal end (Tyr-PEN), and the other with Tyr added on the carboxyterminus (PEN-Tyr). Radiolabeled ^125I-PEN-Tyr and ^125I-Tyr-PEN were then used on wild-type HEK293 cells and HEK293 cells expressing various forms of GPR83 (full-length or deletion variant, with or without HA tag) in competition with different concentrations of natural PEN or Tyr-PEN, ranging from 1 pM to 1 µM.
Figure 5 HEK293 wild-type cells and HEK293 cells overexpressing various forms of GPR83 were used in radioligand binding assays with two different radioactively labeled PEN peptides: [^125I]-Tyr-PEN or [^125I]-PEN-Tyr. (A) Radioligand [^125I]-PEN-Tyr in competition with unlabeled wild-type PEN. (B) Radioligand [^125I]-Tyr-PEN in competition with unlabeled wild-type PEN. (C) Radioligand [^125I]-PEN-Tyr in competition with unlabeled wild-type PEN. (D) Radioligand [^125I]-Tyr-PEN in competition with Tyr-PEN. […]
Two variants of human PENs were utilized for radioiodination in this study: one with a tyrosine added at the aminoterminal end (Tyr-PEN: […]-NH2), and one with an additional tyrosine attached to the carboxyterminal end (PEN-Tyr: […]-NH2). Both were labelled with ^125I using the chloramine-T method. Chloramine-T and sodium metabisulfite solutions were freshly prepared in water. For labelling, 10 µL of peptide (stock 1 mM) with 15 µL of sodium phosphate buffer (0.5 M, pH 7.6) was mixed with 37 MBq carrier-free Na^125I (NEZ033L010MC, Perkin Elmer, Waltham, MA, USA). A 4 μL volume of chloramine T (1 mg/mL) was added to start the reaction, and after 30 s, 4 μL sodium metabisulfite (2 mg/mL) was added to stop the iodination. The labeled radioactive peptide was separated from unlabeled peptide with HPLC purification (Agilent ZORBAX 300 Extend-C18 column) using a gradient from 20–50% acetonitrile (+0.1% TFA) against water (+0.1% TFA) for 20 min. To determine the retention time of the radioactive peptide, 1–2 µL of the reaction mixture was analyzed before the purification run. The fraction containing the radiolabeled peptide peak was then collected, diluted with binding buffer to prevent radioautolysis, aliquoted, and stored at −80 °C.
4.10. Radioligand Binding Assay
For competitive radioligand binding assay, approximately 50,000 cells/well were seeded in a 96-well plate incubated overnight at 37 °C. Next day, cells were incubated in binding buffer (50 mM HEPES pH 7.4, 5 mM MgCl2, 1 mM CaCl2, 0.5% BSA, cOmplete protease inhibitors) containing 100,000 counts per minute of ^125I-labelled peptide, with increasing concentrations of unlabeled peptide. After 2 h of incubation, cells were washed for 2–3 times with ice-cold washing buffer (50 mM Tris-HCl, pH 7.4, 125 mM NaCl, 0.05% BSA) and lysed with 1 N NaOH (80 µL/well). The lysed cells were transferred to vials and measured in a gamma counter (Wallac 1470 Wizard, Perkin Elmer, Waltham, MA, USA). Obtained cpm values were plotted with GraphPad Prism 7, and the data were fitted using nonlinear regression (one site—fit Ki, one site—fit logIC50).

[2] = tested on: GPR83 with chimeric Gα16/i3 protein (CHO cells); conditions: CHO cells transfected with GPR83 and chimeric Gα16/i3 protein; ref [10]; cited from earlier work
Description: In the present study, evidence for a molecular interaction of the neuropeptide PEN with the cell surface receptor GPR83 could not be found.

Sequence: AADHDVGSELPPEGVLGALLRV [PEN, batch #1 synthesized, batch #2 purchased from Phoenix Pharmaceuticals]
- β-arrestin activation (luminescence) (GPR83 (HTLA cells)): no reactivity was detected; also recorded: failed to generate a signal
- concentration-dependent displacement of radioligand ([1]; unlabeled peptide 1 pM to 1 µM versus 125I-PEN-Tyr or 125I-Tyr-PEN, HEK293 wild-type and GPR83 / GPR83del with or without HA tag, pH 7.4, 2 h): neither of these different assay conditions led to a PEN-GPR83 binding signal above background or a concentration-dependent displacement of the radioligand
- interaction with GPR83 in radioligand binding assay ([1]; up to four GPR83-overexpressing cell clones, two radiolabeled PEN variants, whole cells): no interaction could be detected between PEN and GPR83
- intracellular Ca2+ mobilization [2]: PEN-induced intracellular Ca^2+ mobilization
